Drawing on ChEMBL document CHEMBL1157539, “Thousands of chemical starting points for antimalarial lead identification” (Nature, 2010), this text covers XC50 for 86 compounds.

The assay relates to Plasmodium falciparum. Put plainly: GSK_TCMDC: Inhibition of Plasmodium falciparum 3D7 in whole erythrocytes, using parasite LDH activity as an index of growth. It counts as functional, organism-based. The following applies: Plasmodium falciparum, 3D7.
As to `O=C(N/C(=C/c1cccc([N+](=O)[O-])c1)c1nc2ccccc2[nH]1)c1cccc(Br)c1`, the XC50 is 616 nM.
The same measure for `O=C(/C=C/c1ccc(Cl)c(Cl)c1)NCCCCCN1CCCN(C(=O)Nc2cccc(Cl)c2)CC1`: 669 nM; for `Cc1ccc(S(=O)(=O)N2CCN(C(=O)c3cc(-c4ccccc4)n[nH]3)CC2)cc1`: 603 nM.
Compound `COc1cccc(NC(=O)Cn2c(C)c(C(=O)C(F)(F)F)c3ccccc32)c1` gave an XC50 of 827 nM.
The same measure for `CC(C)CCN(Cc1cncn1Cc1cccc(Cl)c1)C(=O)c1cncc(-c2ccccc2)c1`: 762 nM; for `Cc1nc2nc(N)nc(N)c2c(C)c1Cc1ccc(O)cc1`: 236 nM; for `COCC(=O)N(Cc1ccccc1-c1cccc(CNCc2ccc3c(c2)OCO3)c1)C1CCN(Cc2ccccc2)CC1`: 842 nM.
For `COc1ccc2ncc(F)c(CCN3CC(O)C(CNCc4ccc5c(c4)OCCO5)C3)c2n1` (stereo unspecified) the value was 927 nM; for `O=C(/C=C/c1ccc(Cl)c(Cl)c1)N1CCC(CN2CCC(c3c(-c4ccccc4)[nH]c4ccccc34)CC2)CC1`, 335 nM.
Compound `COc1ccc(CCNCCCCCCNCCc2ccc(OC)c(OC)c2Cl)c(Cl)c1OC` came in with an XC50 of 904 nM.
For `CCCCC(=O)Nc1cc(=O)[nH]c2nc(-c3ccc(Cl)cc3)nn12` the value was 708 nM.
For `Cc1ccc(NC(=O)NC2CCN(CCCCCNC(=O)/C=C/c3ccc(Cl)c(Cl)c3)CC2)cc1` the value was 694 nM; for `N=C(N)NN=Cc1ccc2c(ccc3ccccc32)c1`, 634 nM; for `O=C(Nc1ccc(OC2CCN(Cc3ccc(F)cc3)C2)c(Cl)c1)c1cccs1` (stereo unspecified), 128 nM.
For `Cc1nc2nc(N)nc(N)c2c(C)c1Cc1ccc(N)cc1` the value was 644 nM; for `O=C(N[C@@H](Cc1ccccc1)[C@H](O)CNC1CCc2ccccc2C1)c1cc(C2CCCC2)cc(N2CCCC2=O)c1` (stereo partly specified), 161 nM.
Turning to `CCCCNCc1ccc(-c2nc(CN(C(=O)Nc3cc([N+](=O)[O-])ccc3F)C3Cc4ccccc4C3)cs2)cc1`, the XC50 is 1100 nM.
With `CC(=NNC(S)=NCCc1ccccc1)c1ccccn1`, the XC50 is 218 nM.
For `O=C(NCCCCN1CCC(c2c[nH]c3ccccc23)CC1)c1ccc(-c2ccc(C(F)(F)F)cc2)cc1` the value was 798 nM.
On to `COc1cc(CC(C)NCC(O)c2cccc(C(F)(F)F)c2)ccc1OCc1ccccc1` (stereo unspecified), for which the XC50 was 818 nM.
For `Cc1nnsc1C(=O)Nc1ccc(-c2ccc(-c3nc4ccccc4[nH]3)s2)cc1` the value was 825 nM; for `Cc1nc(C)c(CC(=O)Nc2ccc(-c3ccc(-c4nc5cc(C(F)(F)F)ccc5[nH]4)s3)cc2)s1`, 1030 nM; for `COc1cccc(NC(=O)Cn2c(C)c(C#N)c3ccccc32)c1`, 878 nM.
For `CN1CCCN(Cc2ccc(-c3cccc(NC(=O)c4ccc(C#N)cc4)c3)cc2)CC1` the value was 744 nM; for `Cc1cccc2nc(-c3ccc(-c4ccc(CN5CCN(CCN6CCOCC6)CC5)cc4)cc3)[nH]c12`, 231 nM; for `O=C(NCCCN1CCOCC1)c1cccc(Nc2nccc(Nc3ccc(Oc4ccccc4)cc3)n2)c1`, 766 nM.
`CCCNCc1ccc(-c2ccc(CN(Cc3ccc4c(c3)OCO4)C(=O)[C@H]3CCCO3)cc2)nc1` had an XC50 of 811 nM.
Regarding `CC(C)C(=O)NC(c1cccs1)c1cc(Cl)c2cccnc2c1O` (stereo unspecified), the XC50 worked out at 575 nM.
For `O=C(NCCCCN1CCC(c2ccc(Br)cc2)CC1)c1ccc(NC(=O)c2ccc(Cl)cc2)cc1` the value was 712 nM; for `N=C(N)Nc1nc(-c2cccc(NCCCCCCCCON3C(N)=NC(N)=NC34CCCCC4)c2)cs1`, 226 nM.
`CN(C)CCN(C)Cc1cccc(-c2cccc(NC(=O)c3cccc(C#N)c3)c2)c1` registered an XC50 of 873 nM.
The same measure for `O=C(Nc1ccc(C(F)(F)F)cc1)Nc1ccccc1N1CCNCC1`: 500 nM; for `O=C(Nc1cccc(OC2CCN(Cc3ccccc3)CC2)c1)c1ccc(Cl)c(Cl)c1`: 716 nM.
For the compound `Cc1nc(C)c(-c2ccc(Oc3ccc(OC(F)(F)F)cc3)cc2)c(O)c1I`, the XC50 stood at 128 nM.
For `O=C(/C=C/c1ccc(Cl)c(Cl)c1)NC1CCC(CN2CCC(c3nc4ccccc4s3)CC2)CC1` (stereo unspecified) the value was 1020 nM; for `CCCCCC(C)C(C)c1cc(O)c2c(c1)OC(C)(C)C=C2c1cc[n+]([O-])cc1` (stereo unspecified), 1190 nM; for `O=c1[nH]c2ccc(Nc3nccc(NCCc4ccccc4)n3)cc2[nH]1`, 1210 nM.
The same measure for `CS(=O)(=O)c1ccc(CCNCc2ccc(-c3ccc(CNC4CCN(Cc5ccccc5)CC4)cc3)nc2)cc1`: 249 nM; for `Cn1cccc1C(=O)Nc1cccc(-c2nn3ccccc3c2-c2ccnc(Nc3ccc4c(c3)OCCO4)n2)c1`: 1350 nM; for `COc1ccc2nccc([C@@H](O)CN3CCC(NCc4cc5cc(OC(F)(F)F)ccc5[nH]4)CC3)c2c1`: 127 nM.
For `Cc1ccccc1C1CCN(C2CCC(NC(=O)/C=C/c3cccc(F)c3F)CC2)CC1` (stereo unspecified) the value was 1150 nM; for `Cc1cc(=O)c2cc(Oc3ccc(OC(F)(F)F)cc3)ccc2[nH]1`, 990 nM.
`O=C(/C=C/c1ccc(Cl)c(Cl)c1)NCC1CCC(N2CCC(c3c[nH]c4ccccc34)CC2)CC1` (stereo unspecified) showed an XC50 of 172 nM.
For `Cc1ccccc1C(=O)NC(NC(=S)Nc1ccc([N+](=O)[O-])cc1)C(Cl)(Cl)Cl` (stereo unspecified) the value was 745 nM; for `CC(Oc1c(C2CCN(CCCCNC(=O)c3ccc(-c4ccc(C#N)cc4)cc3)CC2)ccc2c1CCCC2)C(N)=O` (stereo unspecified), 678 nM.
For `Cc1cc(Nc2ccc(C)c(Cl)c2)n2nc(C(F)(F)F)nc2n1` the value was 15.8 nM; for `Cc1cc2ccccc2c(CON2C(=N)N=C(N)NC2(C)C)c1C`, 9.5 nM.
For `COc1ccc(CC(=O)NC(CCCN2CCC3(CC2)OCc2ccccc23)c2ccc(Cl)c(Cl)c2)cc1` (stereo unspecified) the value was 1130 nM; for `NC1=NC(c2ccccc2)(c2ccccc2)C(=O)N1Cc1ccccc1Br`, 865 nM.
As for `COc1ccc(Cc2nc3c(n2C(C)=O)SC(c2ccc(Cl)c(Cl)c2)=NN3C(C)=O)cc1`, the XC50 was found to be 809 nM.
For `O=C(Nc1ccc(S(=O)(=O)N2CCCCCC2)cc1)c1cc(-c2ccccc2O)n[nH]1` the value was 717 nM.
In turn, `CCC1N=C(N)N=C(N)N1OCCCOc1c(Cl)cc(Cl)cc1Cl` (stereo unspecified) registered an XC50 of 3.2 nM.
For `COc1ccc(NC(=O)[C@H](Cc2ccccc2)Nc2cc(C)nc(NCCc3ccccc3)n2)cc1` the value was 1240 nM; for `O=c1cc(NCCCNCc2[nH]c3cc(Cl)cc(Cl)c3c2Cn2cccn2)[nH]c2ccccc12`, 972 nM.
In turn, `C=CCC(C(=O)Nc1ccnc2ccc(OC)cc12)C1CCN(CCCCCCC)CC1` (stereo unspecified) showed an XC50 of 242 nM.
Consider `OC1CCCN(Cc2ccc(-c3ccc(-c4nc5cc(F)ccc5[nH]4)s3)cc2)C1` (stereo unspecified), for which the XC50 was 851 nM.
Regarding `CC(C)CCNC(=N)c1ccc(OCCCCCOc2ccc(C(=N)NCCC(C)C)cc2)cc1`, the XC50 is 534 nM.
For `O=C(Nc1ccc2c(c1)CCN2C1CCN(Cc2ccc(C(F)(F)F)cc2F)C1)c1ccco1` (stereo unspecified), the XC50 was determined as 510 nM.
For `CCOc1ccccc1CCNC(C)Cc1ccc(C(=O)Nc2ccc(CC(C)NCCc3cccc(Cl)c3)cc2)cc1` (stereo unspecified), the XC50 was 539 nM.
The same measure for `COc1ccc(-c2ccc(S(=O)(=O)Nc3cc4c(cc3OC(C)C)CCN(C)CC4)cc2)cc1`: 686 nM; for `Cc1[nH]n(-c2cccc(Cl)c2)c(=O)c1-c1ccc(Cl)cc1`: 929 nM; for `O=C(c1c(-c2[nH]c3ccccc3c2C(=O)C(F)(F)F)[nH]c2ccccc12)C(F)(F)F`: 746 nM.
For `O=c1cc(NCCCCNCc2ccc(Br)c(Br)c2)[nH]c2ccccc12` the value was 856 nM.
For `CC(CO)(CO)NCc1cc2c3ccccc3c(CNC(C)(CO)CO)cc2c2ccccc12` the value was 723 nM.
The compound `Cc1cc(-c2cccc3c(C(=O)N4CCc5cc6nccc(N7CCCN(C)CC7)c6cc54)cccc23)cc(C)n1` gave an XC50 of 437 nM.
Compound `N#Cc1cccc(NC(=O)Nc2cccc(-c3cccc(-c4nc5cc(F)ccc5[nH]4)c3)c2)c1` gave an XC50 of 225 nM.
The same measure for `O=C(Nc1ccc(N2CCCN(Cc3cccc(F)c3)CC2)cc1)c1ccc(F)cc1`: 837 nM; for `CCN(CCCN1CCCCC1)c1cc(C)nc(Nc2ccc(C(F)(F)F)cc2)n1`: 374 nM.
Compound `Cc1cc(-c2ccc(NC(=O)N3CCc4cc(Br)c(N5CCN(C)CC5)cc43)cc2)ccc1C#N` returned an XC50 of 883 nM.
For `COc1ccc(CC(=O)Nc2ccc(Nc3nc(C)cc(N4CCCC4)n3)cc2)cc1` the value was 1110 nM; for `COCCNCc1ccc(-c2cccc(CNc3ccc(OC)cc3)c2)cc1`, 1040 nM; for `CCCCCN1CCCC1CNS(=O)(=O)c1cccc(C(=O)Nc2cccc(C#N)c2)c1` (stereo unspecified), 978 nM.
The same measure for `CCC[C@@H]([C@@H](CC(C)C)C(=O)N[C@@H](CCCCNC(=O)c1ccccn1)C(=O)Nc1nccs1)N(O)C=O`: 46.6 nM; for `COc1ccc(CNc2nccc3ccc(-c4ccc5nccn5c4)cc23)cc1`: 882 nM; for `COc1ccc(C(=O)NC2CCN(c3ccnc4cc(Cl)ccc34)C2)cc1` (stereo unspecified): 231 nM.
The same measure for `Cc1cccc2nc(-c3ccc(-c4cccc(NC(=O)C(C)CN(C)C)c4)s3)[nH]c12` (stereo unspecified): 724 nM.
Regarding `O=C(CN1CCN(S(=O)(=O)C=Cc2ccccc2)CC1)Nc1cc(C(F)(F)F)ccc1Cl`, the XC50 is 776 nM.
The same measure for `COc1cc2nccc(Nc3ccc(NC(=O)c4ccc(C)cc4)c(O)c3)c2cc1OC`: 174 nM.
Regarding `CCCC(C)NC(=O)C(N)Cc1cccc(I)c1` (stereo unspecified), the XC50 is 975 nM.
For `Cc1cc(N[C@@H](CC(C)C)C(=O)NC2CCCC2)nc(NCCc2ccc(F)cc2)n1` the value was 794 nM.
For `O=C(Nc1ccc2c(c1)CCN2C1CCN(Cc2cccc(C(F)(F)F)c2)C1)c1ccco1` (stereo unspecified) the value was 564 nM; for `O=C(Nc1ccc(Cl)cc1)Nc1ccc(-c2cccc(-c3nc4ccccc4[nH]3)c2)cc1`, 157 nM; for `Cc1noc(C)c1C(=O)N1CCc2cc3nccc(N4CCN5CCC[C@H]5C4)c3cc21`, 874 nM.
The same measure for `CCN(CC)Cc1cc(Nc2c3ccc(Cl)cc3nc3cccc(OC)c23)ccc1O`: 33.4 nM; for `CCC(C)c1ccc(Nc2nc(C)cc(N(CC)CCCN3CCCCC3)n2)cc1` (stereo unspecified): 332 nM; for `COc1cc(OC)cc(-c2nn(-c3ccc([N+](=O)[O-])cc3Cl)c(=S)n2Cc2ccco2)c1`: 838 nM.
